According to patent publication US20080254986A1, “Use of piperonyl butoxide to protect plants” (priority 2007, published 2008):

What was measured:
Format in all cases: in vivo
Impatiens plants [1] = assay: Wilt index of Impatiens plants after spray application
Procedure: (§1) Ornamental Plants were purchased from local greenhouse retail outlets and allowed to equilibrate to greenhouse conditions for a minimum of 48 hours before experiments were performed.
(§2) To quantify resistance of plants to wilting, a wilt index was developed. The wilt index uses numerical values of 1-4 (1=no wilt, 4=completely wilted and loss of turgor) to express wilt status. A wilt index was determined for each individual plant assessed daily. When the wilt index was equal to or exceeded 2.5, the plant was considered not salable, and the last day prior to that was considered its last marketable day
In the ornamental plant Impatiens, spray applications were made to evaluate the effects of ABA, PBO or the combination to increase the number of days until the plants wilted. Using a wilt index of 1-4 (1=no wilt, 4=completely wilted and loss of turgor), plants were evaluated following spray application.

cotton [2] = assay: Stomatal conductance of cotton plants after spray application
Procedure: Cotton was planted and grown at 25° C. under a 16:8 photoperiod for 14 days. After two weeks, plants were moved to the greenhouse (25±2° C., 16:8 photoperiod) for an additional three weeks before treatment.
[…] Transpiration rate of each treatment was calculated as the percentage of that of control at each day to eliminate day-to-day variation caused by changes of environmental condition such as light intensity and temperature.
In cotton, ABA, PBO and the combination were applied to evaluate the effect on stomatol conductance. A decrease in stomatal aperture, reflected in the conductance measures, is an immediate and direct effect of applied ABA (Finkelstein and Rock, 2002).

cotton [3] = assay: Stomatal conductance of cotton plants after drench application; details: for Reduction of stomatal conductance: drench 50 ppm ABA
Procedure: Cotton was planted and grown at 25° C. under a 16:8 photoperiod for 14 days. After two weeks, plants were moved to the greenhouse (25±2° C., 16:8 photoperiod) for an additional three weeks before treatment. […] Transpiration rate of each treatment was calculated as the percentage of that of control at each day to eliminate day-to-day variation caused by changes of environmental condition such as light intensity and temperature. In cotton, ABA, PBO and the combination were applied to evaluate the effect on stomatol conductance. A decrease in stomatal aperture, reflected in the conductance measures, is an immediate and direct effect of applied ABA (Finkelstein and Rock, 2002).

Viola (Violet) = assay: Marketability of Viola (Violet) after sprays
Procedure: as §1, §2
To determine if the combination of ABA and PBO is effective at increasing marketable life of other ornamental plants, Viola plants (Violet) were used. All applications were made by spray to fully hydrated plants. Spray solutions were applied as soon as possible after mixing. All spray applications contained Tween 20 at 0.05% (v/v).

Impatiens plants [4] = assay: Marketability (days marketable) of Impatiens plants after sprays
Procedure: as §1, §2
When the wilt incidence was less than 2.5, the treated plants were considered saleable. The duration of salability was determined for individual plants and the values averaged (Table 4).

Pansy = assay: Marketability of Pansy after sprays
Procedure: as §1, §2
To determine if the ABA, PBO, or the combination of ABA and PBO is effective at increasing marketable life of other ornamental plants, Pansy plants were used. All applications were made by spray to fully hydrated plants. Solutions were applied as soon as possible after mixing. All spray applications contained Tween 20 at 0.05% (v/v). Plants were held in a greenhouse without further irrigation.

Impatiens plants [5] = assay: Marketability of Impatiens plants, ABA drench and PBO foliar spray
Procedure: as §1, §2
To better determine the effectiveness of PBO on ABA effectiveness, a spatial separation in application methodology was used. That is, water or ABA were drench applied at 10% of the pot volume, followed by a spray application to the foliage of Tween 20 (0.05%) in water, either alone, or in combination with 1000 ppm PBO.
In Table 6, the rate of ABA in the drench application is varied in order to determine the effect of PBO sprays on ABA rate.

[6] = spray 50 ppm, 0 hours after application
[7] = spray 50 ppm, 5 hours after application
[8] = spray 50 ppm, 24 hours after application
[9] = spray 50 ppm, 48 hours after application
[10] = spray 50 ppm, 72 hours after application
[11] = spray 50 ppm, 96 hours after application
[12] = drench 50 ppm, 0 hours after application
[13] = drench 50 ppm, 5 hours after application
[14] = drench 50 ppm, 24 hours after application
[15] = drench 50 ppm, 48 hours after application
[16] = drench 50 ppm, 72 hours after application
[17] = drench 50 ppm, 96 hours after application
[18] = spray PBO 1000 ppm + Tween 20 0.05%

CCCCOCCOCCOCc1cc2c(cc1CCC)OCO2 [PBO, piperonyl butoxide]
Wilt Index (1 = no wilt; 4 = plants wilted, complete loss of turgor) (Impatiens plants [1]; spray PBO 1000 ppm + Tween 20 0.05%, 0 days after spray): 1 | Wilt Index (1 = no wilt; 4 = plants wilted, complete loss of turgor) (Impatiens plants [1]; spray PBO 1000 ppm + Tween 20 0.05%, 4 days after spray): 1.13 | Wilt Index (1 = no wilt; 4 = plants wilted, complete loss of turgor) (Impatiens plants [1]; spray PBO 1000 ppm + Tween 20 0.05%, 5 days after spray): 1.34 | Wilt Index (1 = no wilt; 4 = plants wilted, complete loss of turgor) (Impatiens plants [1]; spray PBO 1000 ppm + Tween 20 0.05%, 6 days after spray): 1.83 | Wilt Index (1 = no wilt; 4 = plants wilted, complete loss of turgor) (Impatiens plants [1]; spray PBO 1000 ppm + Tween 20 0.05%, 7 days after spray): 2.25 | Increase of the effect of ABA on stomatal conductance by addition of PBO (cotton [2]; PBO 500 ppm added to ABA spray, 5 hours): 27% | Percent Conductance (stomatal conductance, control = 100%) (cotton [2]; [6]): 101.8% | Percent Conductance (stomatal conductance, control = 100%) (cotton [2]; [7]): 89.6% | Percent Conductance (stomatal conductance, control = 100%) (cotton [2]; [8]): 100.7% | Percent Conductance (stomatal conductance, control = 100%) (cotton [2]; [9]): 100.2% | Percent Conductance (stomatal conductance, control = 100%) (cotton [2]; [10]): 90.2% | Percent Conductance (stomatal conductance, control = 100%) (cotton [2]; [11]): 96.2% | Percent Conductance (stomatal conductance, control = 100%) (cotton [2]; spray 500 ppm, 0 hours after application): 103.0% | Percent Conductance (stomatal conductance, control = 100%) (cotton [2]; spray 500 ppm, 5 hours after application): 67.2% | Percent Conductance (stomatal conductance, control = 100%) (cotton [2]; spray 500 ppm, 24 hours after application): 68.5% | Percent Conductance (stomatal conductance, control = 100%) (cotton [2]; spray 500 ppm, 48 hours after application): 81.5% | Percent Conductance (stomatal conductance, control = 100%) (cotton [2]; spray 500 ppm, 72 hours after application): 84.6% | Percent Conductance (stomatal conductance, control = 100%) (cotton [2]; spray 500 ppm, 96 hours after application): 95.2% | Percent Conductance (stomatal conductance, control = 100%) (cotton [3]; [12]): 100.8% | Percent Conductance (stomatal conductance, control = 100%) (cotton [3]; [13]): 84.0% | Percent Conductance (stomatal conductance, control = 100%) (cotton [3]; [14]): 95.1% | Percent Conductance (stomatal conductance, control = 100%) (cotton [3]; [15]): 97.7% | Percent Conductance (stomatal conductance, control = 100%) (cotton [3]; [16]): 91.6% | Percent Conductance (stomatal conductance, control = 100%) (cotton [3]; [17]): 101.5% | Percent Conductance (stomatal conductance, control = 100%) (cotton [3]; drench 500 ppm, 0 hours after application): 100.4% | Percent Conductance (stomatal conductance, control = 100%) (cotton [3]; drench 500 ppm, 5 hours after application): 86.8% | Percent Conductance (stomatal conductance, control = 100%) (cotton [3]; drench 500 ppm, 24 hours after application): 89.8% | Percent Conductance (stomatal conductance, control = 100%) (cotton [3]; drench 500 ppm, 48 hours after application): 96.9% | Percent Conductance (stomatal conductance, control = 100%) (cotton [3]; drench 500 ppm, 72 hours after application): 100.2% | Percent Conductance (stomatal conductance, control = 100%) (cotton [3]; drench 500 ppm, 96 hours after application): 93.1% | Days Marketable (Wilt index less than 2.5) (Viola (Violet); [18]): 5.9 days | Days Marketable (Wilt index less than 2.5) (Impatiens plants [4]; [18]): 6.6 days | Days Marketable (Wilt index less than 2.5) (Pansy; spray PBO 1.5 mg + Tween 20 0.05%): 5.8 days | Days Marketable (Wilt index less than 2.5) (Impatiens plants [5]; Table 5, drench water, spray PBO 1000 ppm + Tween 20 0.05%): 6.69 days | Days Marketable (Wilt index less than 2.5) (Impatiens plants [5]; Table 6, drench water, spray PBO 1000 ppm + Tween 20 0.05%): 6.5 days

S-(+)-abscisic acid [ABA]
Wilt Index (1 = no wilt; 4 = plants wilted, complete loss of turgor) (Impatiens plants [1]; spray ABA 200 ppm + Tween 20 0.05%, 0 days after spray): 1 | Wilt Index (1 = no wilt; 4 = plants wilted, complete loss of turgor) (Impatiens plants [1]; spray ABA 200 ppm + Tween 20 0.05%, 4 days after spray): 1.00 | Wilt Index (1 = no wilt; 4 = plants wilted, complete loss of turgor) (Impatiens plants [1]; spray ABA 200 ppm + Tween 20 0.05%, 5 days after spray): 1.27 | Wilt Index (1 = no wilt; 4 = plants wilted, complete loss of turgor) (Impatiens plants [1]; spray ABA 200 ppm + Tween 20 0.05%, 6 days after spray): 1.66 | Wilt Index (1 = no wilt; 4 = plants wilted, complete loss of turgor) (Impatiens plants [1]; spray ABA 200 ppm + Tween 20 0.05%, 7 days after spray): 2.31 | Decrease in stomatal conductance (cotton [2]; ABA spray, 5 hours after spray application): 58.9% | Percent Conductance (stomatal conductance, control = 100%) (cotton [2]; [6]): 101.1% | Percent Conductance (stomatal conductance, control = 100%) (cotton [2]; [7]): 41.1% | Percent Conductance (stomatal conductance, control = 100%) (cotton [2]; [8]): 86.2% | Percent Conductance (stomatal conductance, control = 100%) (cotton [2]; [9]): 91.9% | Percent Conductance (stomatal conductance, control = 100%) (cotton [2]; [10]): 102.0% | Percent Conductance (stomatal conductance, control = 100%) (cotton [2]; [11]): 100.6% | Reduction of stomatal conductance (cotton [3]; 5 hours post drench): 44% | Reduction of stomatal conductance (cotton [3]; 24 hours post drench): 22.5% | Percent Conductance (stomatal conductance, control = 100%) (cotton [3]; [12]): 100.3% | Percent Conductance (stomatal conductance, control = 100%) (cotton [3]; [13]): 56.0% | Percent Conductance (stomatal conductance, control = 100%) (cotton [3]; [14]): 77.5% | Percent Conductance (stomatal conductance, control = 100%) (cotton [3]; [15]): 85.8% | Percent Conductance (stomatal conductance, control = 100%) (cotton [3]; [16]): 83.9% | Percent Conductance (stomatal conductance, control = 100%) (cotton [3]; [17]): 104.3% | Days Marketable (Wilt index less than 2.5) (Viola (Violet); spray ABA 100 ppm + Tween 20 0.05%): 8.0 days | Increase in shelf life without watering (Impatiens plants [4]; ABA spray 200 ppm versus control spray): almost two day increase | Days Marketable (Wilt index less than 2.5) (Impatiens plants [4]; spray ABA 200 ppm + Tween 20 0.05%): 7.5 days | Days Marketable (Wilt index less than 2.5) (Pansy; spray ABA 7.5 mg + Tween 20 0.05%): 7.6 days | Days Marketable (Wilt index less than 2.5) (Impatiens plants [5]; Table 5, drench ABA 200 ppm, spray Tween 20 0.05%): 7.69 days | Days Marketable (Wilt index less than 2.5) (Impatiens plants [5]; Table 6, drench ABA 50 ppm, spray Tween 20 0.05%): 6.5 days | Days Marketable (Wilt index less than 2.5) (Impatiens plants [5]; Table 6, drench ABA 200 ppm, spray Tween 20 0.05%): 8.1 days
